biological target: T1, Na+-dependent bile acid transportation system (brush border membrane vesicles of the ileum) (Oryctolagus cuniculus, UniProt Q28727); experiment: Inhibition of [3H]-taurocholate uptake in brush border membrane vesicles of the ileum of rabbits; type: biochemical; settings: Na+-dependent part of [3H]-taurocholate uptake (difference Na-T-B minus K-T-B), rabbit ileal brush border membrane vesicles
T1 construct: Brush border membrane vesicles were prepared from the intestinal cells of the small intestine; from tissue; host or cells: brush border membrane vesicles from the terminal 7/10 of the small intestine (ileum) of male New Zealand rabbits
T1 sequence (Q28727 1-347): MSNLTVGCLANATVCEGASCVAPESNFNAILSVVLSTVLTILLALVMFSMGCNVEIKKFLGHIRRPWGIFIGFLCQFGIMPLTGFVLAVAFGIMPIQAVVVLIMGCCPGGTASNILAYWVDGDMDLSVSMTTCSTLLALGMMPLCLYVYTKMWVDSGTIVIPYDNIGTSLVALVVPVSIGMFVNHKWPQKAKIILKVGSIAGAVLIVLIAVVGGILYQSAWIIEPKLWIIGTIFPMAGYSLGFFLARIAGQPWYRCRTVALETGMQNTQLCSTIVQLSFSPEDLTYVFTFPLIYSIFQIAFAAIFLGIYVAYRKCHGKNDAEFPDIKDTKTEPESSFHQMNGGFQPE
Protocol: The compounds according to the invention were tested biologically by determination of the inhibition of ^3 H!-taurocholate uptake in the brush border membrane vesicle of the ileum of rabbits. The inhibition test was carried out as follows:
1. Preparation of brush border membrane vesicles from the ileum of rabbits
Brush border membrane vesicles were prepared from the intestinal cells of the small intestine by the so-called Mg^2+ precipitation method. Male New Zealand rabbits (2 to 2.5 kg body weight) were sacrificed by intravenous injection of 0.5 ml of an aqueous solution of 2.5 mg of tetracaine HCl, 100 T 61^R and 25 mg of mebezonium iodide. The small intestine was removed and rinsed with ice-cold physiological saline solution. The terminal 7/10 of the small intestine (measured in the oral-rectal direction, i.e. the terminal ileum, which contains the active Na^+ -dependent bile acid transportation system) was used for preparation of the brush border membrane vesicles. The intestines were frozen in plastic bags under nitrogen at -80° C. For preparation of the membrane vesicles, the frozen intestines were thawed at 30° C. in a water-bath. The mucosa was scraped off and suspended in 60 ml of ice-cold 12 mMTris/HCl buffer (pH 7.1)/300 mM mannitol, 5 mM EGTA/10 mg/l of phenylmethyl-sulfonyl fluoride/1 mg/l of trypsin inhibitor from soybean (32 U/mg)/0.5 mg/l of trypsin inhibitor from bovine lung (193 U/mg)/5 mg/l bacitracin. After dilution to 300 ml with ice-cold distilled water, the mixture was homogenized with an Ultraturrax (18-rod, IKA Werk Stuafen, FRG) for 3 minutes at 75% of the maximum power, while cooling with ice. After addition of 3 ml of 1M MgCl2 solution (final concentration 10 mM), the mixture was left to stand for exactly 1 minute at 0° C. By addition of Mg^2+, the cell membranes aggregate and precipitate, with the exception of the brush border membranes. After centrifugation at 3000×g (5000 rpm, SS-34 rotor) for 15 minutes, the precipitate is discarded and the supernatant, which contains the brush border membranes, is centrifuged at […] (15,000 rpm, SS-34 rotor) for 30 minutes. The supernatant was discarded and the precipitate was rehomogenized in 60 ml of 12 mMTris/HCl buffer (pH 7.1)/60 mM mannitol, 5 mM EGTA using a Potter Elvejhem homogenizer (Braun, Melsungen, 900 rpm, 10 strokes). After addition of 0.1 ml of 1M MgCl2 solution and an incubation time of 15 minutes at 0° C., the mixture was centrifuged again at 3000×g for 15 minutes. The supernatant was then centrifuged again at 46,000×g (15,000 rpm, SS-34 rotor) for 30 minutes. The precipitate was taken up in 30 ml of 10 mM Tris/Hepes buffer (pH 7.4)/300 mM mannitol and resuspended homogeneously by 20 strokes in a Potter Elvejhem homogenizer at 1000 rpm. After centrifugation at 48,000×g (20,000 rpm, SS-34 rotor) for 30 minutes, the precipitate was taken up in 0.5 to 2 ml of Tris/Hepes buffer (pH 7.4)/280 mM mannitol (final concentration 20 mg/ml) and resuspended with the aid of a tuberculin syringe with a 27 gauge needle. The vesicles were either used for transportation studies immediately after preparation, or stored at -196° C. in 4 mg portions in liquid nitrogen.
2. Inhibition of the Na^+ -dependent ^3 H!-taurocholate uptake in brush border membrane vesicles of the ileum
The uptake of substrates in the brush border membrane vesicles described above was determined by means of the so-called membrane filtration technique. 10 μl of the vesicle suspension (100 μg of protein) were pipetted as drops onto the wall of a polystyrene incubation tube (11×70 mm) which contained the incubation medium with the corresponding ligands (90 μl). […]

SMILES | quotient of the IC50Na values of the reference substance taurochenodeoxycholate (TCDC) and the test substance
C[C@H](CCC(=O)O)[C@H]1CC[C@H]2[C@@H]3[C@H](O)C[C@@H]4C[C@@H](OCCOCCNC(=O)[C@@H](C)[C@H]5CC[C@H]6[C@@H]7[C@H](O)C[C@@H]8C[C@H](O)CC[C@]8(C)[C@H]7C[C@H](O)[C@]56C)CC[C@]4(C)[C@H]3C[C@H](O)[C@]12C [Example 41] | 0.58
C[C@H](CCC(=O)O)[C@H]1CC[C@H]2[C@@H]3[C@H](O)C[C@@H]4C[C@@H](NC(=O)C[C@@H](C)[C@H]5CC[C@H]6[C@@H]7[C@H](O)C[C@@H]8C[C@H](O)CC[C@]8(C)[C@H]7C[C@H](O)[C@]56C)CC[C@]4(C)[C@H]3CC[C@]12C [Example 36] | 1.14
CC(C(=O)N[C@H]1CC[C@@]2(C)[C@@H](C1)C[C@@H](O)[C@@H]1[C@@H]2CC[C@]2(C)[C@@H]([C@H](C)CCC(=O)O)CC[C@@H]12)[C@H]1CC[C@H]2[C@@H]3[C@H](O)C[C@@H]4C[C@H](O)CC[C@]4(C)[C@H]3C[C@H](O)[C@]12C (stereo partly shown) [Example 43] | 0.78
C[C@H](CCC(=O)NCC(=O)O)[C@H]1CC[C@H]2[C@@H]3[C@H](O)C[C@@H]4C[C@@H](OCCOCCNC(=O)C[C@@H](C)[C@H]5CC[C@H]6[C@@H]7[C@H](O)C[C@@H]8C[C@H](O)CC[C@]8(C)[C@H]7C[C@H](O)[C@]56C)CC[C@]4(C)[C@H]3C[C@H](O)[C@]12C [Example 57] | 0.34
C[C@H](CCC(=O)N[C@H]1CC[C@@]2(C)[C@@H](C1)C[C@@H](O)[C@@H]1[C@@H]2C[C@H](O)[C@]2(C)[C@@H]([C@H](C)CC(=O)O)CC[C@@H]12)[C@H]1CC[C@H]2[C@@H]3[C@H](O)C[C@@H]4C[C@H](O)CC[C@]4(C)[C@H]3CC[C@]12C [Example 65] | 0.64
C[C@H](CC(=O)O)[C@H]1CC[C@H]2[C@@H]3[C@H](O)C[C@@H]4C[C@@H](NC(=O)[C@@H](C)[C@H]5CC[C@H]6[C@@H]7[C@H](O)C[C@@H]8C[C@H](O)CC[C@]8(C)[C@H]7C[C@H](O)[C@]56C)CC[C@]4(C)[C@H]3C[C@H](O)[C@]12C [Example 69] | 0.86
C[C@H](CCC(=O)O)[C@H]1CC[C@H]2[C@@H]3[C@H](O)C[C@@H]4C[C@@H](NC(=O)C[C@@H](C)[C@H]5CC[C@H]6[C@@H]7[C@H](O)C[C@@H]8C[C@H](O)CC[C@]8(C)[C@H]7C[C@H](O)[C@]56C)CC[C@]4(C)[C@H]3C[C@H](O)[C@]12C [Example 32] | 0.65

Reference: patent US5512558A, “Nor-bile acid derivatives, processes for their preparation and the use of these compounds as medicaments” (Hoechst Aktiengesellschaft, priority 1993, dated 1996)
